In patent US4673665A, “Process for treating anestrus in ewes or beef cattle” (Hoechst Aktiengesellschaft, priority 1982, dated 1987):

Experiments:
sheep [1] = details: 14-day s.c. progesterone implant, then 250 ng LH-RH at 2 hourly intervals for 48 hours, cited from earlier work
beef cows [2] = test: Example 3: PRID progesterone device for 8 days, then constant LH-RH infusion in post-partum beef cows; ovulation; type: in vivo, beef cattle; details: PRID for 8 days, then LH-RH constant infusion 2.5 μg/2 h; 5 beef cows
Method: 5 Beef cows were treated in the early post-partum period over a period of 8 days by inserting in them an intravaginal device (PRID® of the firm Abbott) containing progesterone. Following withdrawal of the device a LH-RH constant infusion in doses of 2.5 μg/2 h was carried out in the manner described in Example 2. Ovulation occurred during the treatment in all cows, said ovulation being characterized by an increase in the progesterone plasma level.

female mature ewes = test: Example 1: progesterone implant pretreatment, then constant LH-RH infusion in ewes; mating, ovulation (laparoscopy), pregnancy; type: in vivo, sheep (Clun Forest, Welsh Halfbred); details: for number of ovulations: laparoscopy
Method: Implants containing progesterone were administered subcutaneously to 28 female mature ewes of two different breeds ("Clun Forest" and "Welsh Halfbred") for a period of 14 days. 12 Ewes were infused constantly with 125 to 250 ng of LH-RH per hour over a period of 48 hours 2 hours before withdrawing the implants. Four ewes treated with a saline solution served as a control. The sheep were examined by laparoscopy to test them for ovulation, moreover blood samples were taken to determine the progesterone level. 24 hours after starting the infusions, onset of estrus was observed using fertile rams at 4 hourly intervals and the ewes in estrus were mated.

sheep [3] = details: i.v. injections of 250, 500 and 1,000 ng LH-RH at 2 hourly intervals over 8 days, no gestagen pretreatment; cited from earlier work
beef cows [4] = test: Example 2: LH-RH injections at 2 hourly intervals or constant infusion in early post-partum beef cows; progesterone and LH level; type: in vivo, beef cattle; details: for No. showing progesterone rise: 2 to 4 days
Method: 17 Beef cows were injected with 1.0, 2.5 and 5.0 μg of LH-RH, respectively, in the early post-partum period during 2 to 4 days at 2 hourly intervals, while 21 beef cows were given a constant infusion of identical dosage per unit of time during the same period of time.
Blood samples were taken prior to and during the treatments to determine the LH level. Blood samples for determining the progesterone level were taken during a prolonged period of time after the treatment.

monkey = details: continuous intravenous injection of LH-RH; cited from earlier work
[5] = 125 ng of LH-RH/h constant infusion for 48 h after 14-day progesterone implant
[6] = 250 ng LH-RH/h constant infusion for 48 h after 14-day progesterone implant

## LH-RH: LH/FSH-releasing hormone, provokes release of LH and FSH from the pituitary gland
Sheep [1]; 5 bred sheep
  number of bred sheep that became pregnant: 3
Sheep [1]; 5 sheep
  estrus and ovulation: induced
Beef cows [2]
  cows in which ovulation occurred during the treatment (increase in progesterone plasma level): all cows
Female mature ewes; [5]
  rate of ovulations: 1.4
  number of ovulations: 9
Female mature ewes; 125 ng of LH-RH/h constant infusion for 48 h after 14-day s.c. progesterone implant
  number of mated sheep: 10
Female mature ewes; [6]
  rate of ovulations: 1.5
  number of ovulations: 12
Female mature ewes; 250 ng LH-RH/h constant infusion for 48 h after 14-day s.c. progesterone implant
  number of mated sheep: 11
Female mature ewes; ewes treated with LH-RH after progesterone implant and mated
  pregnancy rate: 75%
Sheep [3]
  induction of estrus: could not be induced
Beef cows [4]; all test animals, irrespective of mode of administration and dose (1.0, 2.5, 5.0 μg)
  plasma LH concentrations during treatment phase compared to pretreatment phase: distinct increase
Beef cows [4]; constant infusion 1.0 μg/2 h, total 6 + 3 cows
  No. showing progesterone rise: 2
Beef cows [4]; constant infusion 1.0 μg/2 h, the 3 cows with calvings in summer
  number of animals that responded (progesterone rise): 2
Beef cows [4]; constant infusion 1.0 μg/2 h, the 6 cows treated after spring calvings
  response (progesterone rise): did not respond
Beef cows [4]; constant infusion 2.5 μg/2 h, total 6 cows
  No. showing progesterone rise: 4
Beef cows [4]; constant infusion 5.0 μg/2 h, total 6 cows
  No. showing progesterone rise: 4
Beef cows [4]; injections at 2 hourly intervals, 1.0 μg, total 6 cows
  No. showing progesterone rise: 4
Beef cows [4]; injections at 2 hourly intervals, 2.5 μg, total 6 cows
  No. showing progesterone rise: 4
Beef cows [4]; injections at 2 hourly intervals, 5.0 μg, total 5 cows
  No. showing progesterone rise: 4
monkey
  pulsed LH release followed by induction of menstrual cycle and ovulation: failed
